Assay results from PubChem BioAssay AID248 (DTP/NCI, 2004).
Several values for one entry are separate records, joined by “and”; a condition that tells them apart may be missing. Equal values may be shown once. Toxic doses and inconclusive results are not listed. Cut-off read from the data, not from the text of the source: active = T/C of 150% or more; inactive = T/C below 125%.

System: L1210 leukemia ip in BDF1 mice, survival T/C
Assay: NCI In Vivo Anticancer Drug Screen. Data for tumor model L1210 Leukemia (intraperitoneal) in B6D2F1 (BDF1) mice
Settings: endpoint: mean survival time, higher = longer survival
Summary of the method: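 Ratio derived from survival: compound-dosed mice over vehicle-dosed mice, all bearing a transplantable tumor.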

[1] = dose: 50.0 mg/kg/injection, schedule: Q01DX009 (ip), vehicle: saline
[2] = dose: 100.0 mg/kg/injection, schedule: Q01DX009 (ip), vehicle: saline
[3] = dose: 200.0 mg/kg/injection, schedule: Q01DX009 (ip), vehicle: saline
[4] = dose: 75.0 mg/kg/injection, schedule: Q01DX009 (ip), vehicle: saline
[5] = dose: 100.0 mg/kg/injection, schedule: Q01DX001 (ip), vehicle: saline
[6] = dose: 200.0 mg/kg/injection, schedule: Q01DX001 (ip), vehicle: saline
[7] = dose: 400.0 mg/kg/injection, schedule: Q01DX001 (ip), vehicle: saline
[8] = dose: 100.0 mg/kg/injection, schedule: Q01DX009 (ip), vehicle: saline with Tween-80
[9] = dose: 100.0 mg/kg/injection, schedule: Q04DX003 (ip), vehicle: saline
[10] = dose: 200.0 mg/kg/injection, schedule: Q04DX003 (ip), vehicle: saline
[11] = dose: 400.0 mg/kg/injection, schedule: Q04DX003 (ip), vehicle: saline
[12] = dose: 50.0 mg/kg/injection, schedule: Q01DX001 (ip), vehicle: saline

Measured: T/C

C/C(=N/NC(N)=S)c1ccc(Cl)cc1
inactive: dose: 5.0 mg/kg/injection, schedule: Q01DX001 (ip), vehicle: other 105 % of control | dose: 10.0 mg/kg/injection, schedule: Q01DX001 (ip), vehicle: other 111 % of control

C1OCC2CCC(CC2)CO1
inactive: [1] 95 % of control | [2] 98 % of control | [3] 97 % of control

COC1CCCNC1CC(=O)Cn1cnc2cc3c(cc2c1=O)OCO3 (stereo not given)
inactive: dose: 18.75 mg/kg/injection, schedule: Q01DX009 (ip), vehicle: saline 92 % of control | dose: 37.5 mg/kg/injection, schedule: Q01DX009 (ip), vehicle: saline 111 % of control | dose: 37.5 mg/kg/injection, schedule: Q04DX003 (ip), vehicle: saline 98 % of control | dose: 75.0 mg/kg/injection, schedule: Q01DX001 (ip), vehicle: saline 101 % of control | [4] 93 % of control | dose: 75.0 mg/kg/injection, schedule: Q04DX003 (ip), vehicle: saline 104 % of control | dose: 150.0 mg/kg/injection, schedule: Q01DX001 (ip), vehicle: saline 107 % of control | dose: 150.0 mg/kg/injection, schedule: Q04DX003 (ip), vehicle: saline 100 % of control

CCCCCCCCCCCCCCCCCCN1CCS(=O)CC1
inactive: dose: 100.0 mg/kg/injection, schedule: Q01DX001 (ip), vehicle: Klucel (hydroxypropylcellulose) (HPC) 98 % of control | dose: 200.0 mg/kg/injection, schedule: Q01DX001 (ip), vehicle: Klucel (hydroxypropylcellulose) (HPC) 100 % of control | dose: 400.0 mg/kg/injection, schedule: Q01DX001 (ip), vehicle: Klucel (hydroxypropylcellulose) (HPC) 102 % of control

Nc1ccc2c(c1[N+](=O)[O-])C(=O)c1ccccc1C2=O
inactive: [5] 92 % of control | [6] 95 % of control | [7] 97 % of control

Cc1cc(C(=O)Nc2ccc(NC3=NCCN3)cc2)c(C)cc1C(=O)Nc1ccc(NC2=NCCN2)cc1
inactive: dose: 1.88 mg/kg/injection, schedule: Q01DX Z (ip), vehicle: saline 93 % of control | dose: 3.75 mg/kg/injection, schedule: Q01DX Z (ip), vehicle: saline 98 % of control | dose: 7.5 mg/kg/injection, schedule: Q01DX Z (ip), vehicle: saline 94 % of control | dose: 15.0 mg/kg/injection, schedule: Q01DX Z (ip), vehicle: saline 108 % of control | dose: 30.0 mg/kg/injection, schedule: Q01DX Z (ip), vehicle: saline 103 % of control

COc1cc2c(cc1OC)C(OC)N(C)c1c-2ccc2cc(OC)c(OC)cc12 (stereo not given)
inactive: dose: 100.0 mg/kg/injection, schedule: Q01DX009 (ip), vehicle: water 110 % of control | dose: 100.0 mg/kg/injection, schedule: Q04DX003 (ip), vehicle: water 103 % of control | dose: 200.0 mg/kg/injection, schedule: Q04DX003 (ip), vehicle: water 115 % of control | dose: 400.0 mg/kg/injection, schedule: Q01DX009 (ip), vehicle: water 104 % of control and 122 % of control | dose: 400.0 mg/kg/injection, schedule: Q04DX003 (ip), vehicle: water 113 % of control

CC1(C)C2CCC1(C)C(OC(=O)c1ccc([N+](=O)[O-])cc1)C2OC(=O)c1ccc([N+](=O)[O-])cc1 (stereo not given)
inactive: [4] 108 % of control | dose: 150.0 mg/kg/injection, schedule: Q01DX009 (ip), vehicle: saline 103 % of control | dose: 300.0 mg/kg/injection, schedule: Q01DX009 (ip), vehicle: saline 97 % of control

Nc1ccc2nc3c(N)ccc(N)c3nc2c1
inactive: dose: 100.0 mg/kg/injection, schedule: Q04DX002 (ip), vehicle: saline with Tween-80 97 % of control | dose: 200.0 mg/kg/injection, schedule: Q04DX002 (ip), vehicle: saline with Tween-80 105 % of control | dose: 400.0 mg/kg/injection, schedule: Q04DX002 (ip), vehicle: saline with Tween-80 105 % of control

CCOC(=O)C(CC)(CCC(C)C)C(=O)OCC
inactive: dose: 25.0 mg/kg/injection, schedule: Q01DX009 (ip), vehicle: saline with Tween-80 97 % of control | dose: 50.0 mg/kg/injection, schedule: Q01DX009 (ip), vehicle: saline with Tween-80 92 % of control | [8] 95 % of control | [9] 95 % of control | [10] 95 % of control | [11] 95 % of control

Nc1nc2c(c(=O)[nH]1)NC(CCNc1ccc(C(=O)NC(CCC(=O)O)C(=O)O)cc1)CN2 (stereo not given)
inactive: dose: 50.0 mg/kg/injection, schedule: Q01DX001 (ip), vehicle: other 104 % of control | [12] 113 % of control | dose: 100.0 mg/kg/injection, schedule: Q01DX001 (ip), vehicle: other 101 % of control | [5] 116 % of control | dose: 108.0 mg/kg/injection, schedule: Q01DX009 (ip), vehicle: other 119 % of control | dose: 200.0 mg/kg/injection, schedule: Q01DX001 (ip), vehicle: other 110 % of control | [6] 107 % of control | dose: 300.0 mg/kg/injection, schedule: Q01DX009 (ip), vehicle: other 116 % of control | dose: 400.0 mg/kg/injection, schedule: Q01DX001 (ip), vehicle: other 110 % of control | [7] 115 % of control | dose: 500.0 mg/kg/injection, schedule: Q01DX009 (ip), vehicle: other 112 % of control

CC(Br)C(=O)OCc1ccccc1 (stereo not given)
inactive: [2] 91 % of control | [3] 91 % of control | dose: 400.0 mg/kg/injection, schedule: Q01DX009 (ip), vehicle: saline 93 % of control

O=[N+]([O-])c1ccc(N2CCCC2)nc1
inactive: dose: 100.0 mg/kg/injection, schedule: Q01DX001 (ip), vehicle: saline with Tween-80 107 % of control | dose: 200.0 mg/kg/injection, schedule: Q01DX001 (ip), vehicle: saline with Tween-80 93 % of control | dose: 400.0 mg/kg/injection, schedule: Q01DX001 (ip), vehicle: saline with Tween-80 100 % of control

c1ccc2c(c1)CCC1=C2CCCC1
inactive: [8] 96 % of control | dose: 100.0 mg/kg/injection, schedule: Q04DX003 (ip), vehicle: saline with Tween-80 101 % of control | dose: 200.0 mg/kg/injection, schedule: Q01DX009 (ip), vehicle: saline with Tween-80 98 % of control | dose: 200.0 mg/kg/injection, schedule: Q04DX003 (ip), vehicle: saline with Tween-80 89 % of control | dose: 400.0 mg/kg/injection, schedule: Q01DX009 (ip), vehicle: saline with Tween-80 91 % of control | dose: 400.0 mg/kg/injection, schedule: Q04DX003 (ip), vehicle: saline with Tween-80 92 % of control

C#CCO
inactive: dose: 12.0 mg/kg/injection, schedule: Q01DX009 (ip), vehicle: saline 107 % of control | dose: 25.0 mg/kg/injection, schedule: Q01DX009 (ip), vehicle: saline 110 % of control | [1] 94 % of control

CCOC(=O)C(O)c1cccc(OC)c1 (stereo not given)
inactive: dose: 100.0 mg/kg/injection, schedule: Q01DX009 (ip), vehicle: saline sonified 92 % of control | dose: 100.0 mg/kg/injection, schedule: Q04DX003 (ip), vehicle: saline sonified 97 % of control | dose: 200.0 mg/kg/injection, schedule: Q04DX003 (ip), vehicle: saline sonified 94 % of control | dose: 400.0 mg/kg/injection, schedule: Q01DX009 (ip), vehicle: saline sonified 89 % of control | dose: 400.0 mg/kg/injection, schedule: Q04DX003 (ip), vehicle: saline sonified 103 % of control

COc1ccc(/C=C2\N=C(c3ccccc3)OC2=O)cc1OC
inactive: [12] 105 % of control | [5] 109 % of control | [9] 96 % of control | [6] 105 % of control | [10] 100 % of control | [7] 100 % of control | [11] 96 % of control

CCCCCc1ccc2oc(=O)c3ccc(C)cc3c2c1O
inactive: dose: 100.0 mg/kg/injection, schedule: Q01DX009 (ip), vehicle: Klucel (hydroxypropylcellulose) (HPC) 90 % of control | dose: 100.0 mg/kg/injection, schedule: Q04DX003 (ip), vehicle: Klucel (hydroxypropylcellulose) (HPC) 97 % of control | dose: 200.0 mg/kg/injection, schedule: Q01DX009 (ip), vehicle: Klucel (hydroxypropylcellulose) (HPC) 93 % of control | dose: 200.0 mg/kg/injection, schedule: Q04DX003 (ip), vehicle: Klucel (hydroxypropylcellulose) (HPC) 98 % of control | dose: 400.0 mg/kg/injection, schedule: Q01DX009 (ip), vehicle: Klucel (hydroxypropylcellulose) (HPC) 97 % of control | dose: 400.0 mg/kg/injection, schedule: Q04DX003 (ip), vehicle: Klucel (hydroxypropylcellulose) (HPC) 97 % of control
